Values of other authors, collected in US20060183719A1 (priority 2005, published 2006).
Read-outs that look alike come from different tables or passages of the source.

Row | Structure (SMILES) | absorption (administered orally) | absorption (in vivo, po)
1 | C[C@H]1c2cccc(O)c2C(=O)C2=C(O)[C@]3(O)C(=O)C(C(N)=O)=C(O)[C@@H](N(C)C)[C@@H]3[C@@H](O)[C@@H]21 [doxycycline] | about 90% | 
2 | CN(C)c1ccc(O)c2c1CC1CC3C(N(C)C)C(O)=C(C(N)=O)C(=O)C3(O)C(O)=C1C2=O (centres unmarked) [minocycline] |  | about 90%
